This is an account of results in ChEMBL document CHEMBL1136069, “Urea small molecule agonists on mouse melanocortin receptors” (Bioorg Med Chem Lett, 2003).

For one experiment, the target named is Melanocortin receptor 5 (Mus musculus, UniProt P41149). Briefly: Agonist activity on mouse melanocortin 5 receptor (mMC5R) stably expressed in […] cells. The format is functional, cell-based.
A further experiment deals with Melanocortin receptor 3 (Mus musculus, UniProt P33033). The experiment in a line: Agonist activity on mouse Melanocortin 3 receptor (mMC3R) stably expressed in HEK cells. The format is functional, cell-based, HEK293.
In the next experiment the target is Melanocortin receptor 4 (Mus musculus, UniProt P56450). Briefly: Agonist activity on mouse melanocortin 4 receptor (mMC4R) stably expressed in […] cells. The class given is functional, cell-based.
Experiment [1] concerns the target Melanocyte-stimulating hormone receptor (Mus musculus, UniProt Q01727). The experiment in a line: Agonist activity on mouse melanocortin 1 receptor (mMC1R) stably expressed in HEK cells. The class given is functional, cell-based, HEK293.

Some results are limits rather than exact numbers.

Chain of Melanocortin receptor 4 (P56450 whole entry): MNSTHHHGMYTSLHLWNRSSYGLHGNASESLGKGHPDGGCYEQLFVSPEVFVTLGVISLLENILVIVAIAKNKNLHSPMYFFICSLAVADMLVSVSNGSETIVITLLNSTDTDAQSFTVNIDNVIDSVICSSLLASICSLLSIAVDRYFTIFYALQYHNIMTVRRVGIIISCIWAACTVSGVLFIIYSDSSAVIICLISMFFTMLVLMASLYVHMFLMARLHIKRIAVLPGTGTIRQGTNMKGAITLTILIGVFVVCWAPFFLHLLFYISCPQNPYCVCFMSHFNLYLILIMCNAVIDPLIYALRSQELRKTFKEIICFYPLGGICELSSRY
Chain of Melanocortin receptor 3 (P33033 whole entry): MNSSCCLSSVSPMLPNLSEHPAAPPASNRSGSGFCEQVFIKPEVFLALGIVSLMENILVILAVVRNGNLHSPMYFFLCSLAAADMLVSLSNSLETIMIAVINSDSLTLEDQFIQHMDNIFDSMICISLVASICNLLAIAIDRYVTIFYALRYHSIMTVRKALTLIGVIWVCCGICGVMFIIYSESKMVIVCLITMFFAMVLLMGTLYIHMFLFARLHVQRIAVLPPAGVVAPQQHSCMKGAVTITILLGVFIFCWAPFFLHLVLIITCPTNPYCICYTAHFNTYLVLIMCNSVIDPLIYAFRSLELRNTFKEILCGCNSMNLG
Chain of Melanocyte-stimulating hormone receptor (Q01727 whole entry): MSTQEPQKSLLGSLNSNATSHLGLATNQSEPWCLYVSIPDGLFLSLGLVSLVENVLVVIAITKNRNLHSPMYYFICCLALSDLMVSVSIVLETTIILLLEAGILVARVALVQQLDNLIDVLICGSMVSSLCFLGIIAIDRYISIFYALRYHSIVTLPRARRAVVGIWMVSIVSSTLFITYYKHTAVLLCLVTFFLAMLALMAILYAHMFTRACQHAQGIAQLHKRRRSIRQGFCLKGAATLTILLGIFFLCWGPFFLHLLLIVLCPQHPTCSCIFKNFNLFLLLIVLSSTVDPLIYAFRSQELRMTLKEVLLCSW
Chain of Melanocortin receptor 5 (P41149 whole entry): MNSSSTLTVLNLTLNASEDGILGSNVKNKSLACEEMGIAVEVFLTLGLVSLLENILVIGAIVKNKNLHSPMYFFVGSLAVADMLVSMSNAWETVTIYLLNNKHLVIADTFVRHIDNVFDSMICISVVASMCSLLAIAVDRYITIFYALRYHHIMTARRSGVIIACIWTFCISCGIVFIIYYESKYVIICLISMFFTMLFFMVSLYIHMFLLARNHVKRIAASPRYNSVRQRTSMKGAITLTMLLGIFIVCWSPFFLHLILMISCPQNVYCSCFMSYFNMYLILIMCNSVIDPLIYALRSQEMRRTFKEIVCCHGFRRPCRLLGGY

In general, EC50 refers to the concentration giving half of the maximal effect. The low end stands for greater potency, the high end for weaker potency. On to `NCc1ccc(NC(=O)[C@H](Cc2c[nH]c3ccccc23)NC(=O)NCc2ccccc2)cc1`, for which the concentration giving a half-maximal response (EC50) was 4.9 µM on Melanocortin receptor 5, 10.7 µM on Melanocortin receptor 3, 0.4 µM at Melanocortin receptor 4 and 0.4 µM in experiment [1].
On to `NCCCCNC(=O)[C@H](CCc1ccccc1)NC(=O)NCc1ccccc1`, for which the EC50 (on Melanocortin receptor 5; at Melanocortin receptor 3; on Melanocortin receptor 4; in experiment [1]) was more than 100 µM in each case.
Take `NCCCNC(=O)[C@H](Cc1c[nH]c2ccccc12)NC(=O)NCc1ccccc1`: the EC50 on Melanocortin receptor 5 is 39.9 µM; at Melanocortin receptor 3, more than 100 µM; on Melanocortin receptor 4, more than 100 µM; in experiment [1] it was 51.2 µM.
In the case of `NCCCCCCNC(=O)[C@H](Cc1c[nH]c2ccccc12)NC(=O)NCc1ccccc1`, the half-maximal effective concentration (EC50) is more than 100 µM at Melanocortin receptor 5, more than 100 µM at Melanocortin receptor 3, more than 100 µM on Melanocortin receptor 4 and 22.3 µM in experiment [1].
With `NCCCCNC(=O)[C@H](Cc1c[nH]c2ccccc12)NC(=O)NC1CCN(Cc2ccccc2)CC1`, the concentration giving a half-maximal response (EC50) on Melanocortin receptor 5 worked out at 8.2 µM; on Melanocortin receptor 3, 4.4 µM; on Melanocortin receptor 4 it was 2.8 µM; in experiment [1] it was 5 µM.
Taken in the same sequence, the figures for `NCCCCCNC(=O)[C@H](Cc1c[nH]c2ccccc12)NC(=O)NCc1ccccc1` were 20 µM, more than 100 µM, more than 100 µM and 14.8 µM.
Taken in the same sequence, the figures for `NCCCCNC(=O)[C@H](Cc1c[nH]c2ccccc12)NC(=O)NCc1ccccc1` were 30.5 µM, more than 100 µM, 23.7 µM and 55 µM.
`NCCCCNC(=O)[C@H](Cc1c[nH]c2ccccc12)NC(=O)NCCc1ccccc1`: the concentration for a half-maximal effect (EC50) (on Melanocortin receptor 5; on Melanocortin receptor 3; at Melanocortin receptor 4; in experiment [1]) was more than 100 µM throughout.
Consider `Cc1cccc(CNC(=O)[C@H](Cc2c[nH]c3ccccc23)NC(=O)NCc2ccccc2)c1`, for which the EC50 at Melanocortin receptor 5 is more than 100 µM; on Melanocortin receptor 3 it was more than 100 µM; on Melanocortin receptor 4, more than 100 µM; in experiment [1] it was 28 µM.
Consider `NCCCCNC(=O)[C@H](Cc1c[nH]c2ccccc12)NC(=O)NN1CCc2ccccc2C1`, for which the EC50 worked out at 4.9 µM on Melanocortin receptor 5, 1.7 µM on Melanocortin receptor 3, 3.4 µM on Melanocortin receptor 4 and 7.9 µM in experiment [1].
Taken in the same sequence, the figures for `NCCCCNC(=O)[C@H](Cc1c[nH]c2ccccc12)NC(=O)NN1CCC(Cc2ccccc2)CC1` were 28.9 µM, 100 µM, 100 µM and 20 µM.
Consider `NCCCCNC(=O)[C@H](Cc1ccc(OCc2ccccc2)cc1)NC(=O)NCc1ccccc1`, for which the EC50 was 14.4 µM at Melanocortin receptor 5, more than 100 µM on Melanocortin receptor 3, more than 100 µM at Melanocortin receptor 4 and 20.5 µM in experiment [1].
Regarding `NCCCCNC(=O)[C@@H](Cc1c[nH]c2ccccc12)NC(=O)NCc1ccccc1`, the EC50 at Melanocortin receptor 5 was determined as 32.8 µM; at Melanocortin receptor 3, 100 µM; on Melanocortin receptor 4 it was 23.7 µM; in experiment [1], 42.4 µM.
On the same counts, the results for `CC1CCN(CNC(=O)[C@H](Cc2c[nH]c3ccccc23)NC(=O)NCc2ccccc2)CC1` are 8.2 µM, 4.4 µM, more than 100 µM and 5.2 µM.
